Reference: ChEMBL document CHEMBL1136684, “Novel and potent human and rat beta3-adrenergic receptor agonists containing substituted 3-indolylalkylamines” (Bioorg Med Chem Lett, 2003)

Key:
[1] = molecular target: T1, Beta-3 adrenergic receptor (Homo sapiens, UniProt P13945); test: (§1) Agonistic activity against human Beta-3 adrenergic receptor by measuring cAMP accumulation in CHO cells expressing Beta-3 adrenergic receptor; assay type: functional, cell-based
Target sequence in this assay (P13945 whole entry): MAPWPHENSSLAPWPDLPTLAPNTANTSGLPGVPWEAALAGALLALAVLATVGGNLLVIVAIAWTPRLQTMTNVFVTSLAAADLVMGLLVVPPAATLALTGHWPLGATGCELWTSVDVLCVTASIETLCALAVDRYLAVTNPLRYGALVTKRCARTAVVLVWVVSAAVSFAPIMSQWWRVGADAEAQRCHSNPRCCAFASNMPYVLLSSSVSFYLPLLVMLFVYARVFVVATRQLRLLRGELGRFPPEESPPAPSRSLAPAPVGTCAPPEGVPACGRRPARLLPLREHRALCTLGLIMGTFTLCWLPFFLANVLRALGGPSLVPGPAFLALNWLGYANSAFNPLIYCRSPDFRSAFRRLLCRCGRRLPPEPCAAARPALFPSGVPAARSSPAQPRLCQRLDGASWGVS

[2] = molecular target: T1, Beta-3 adrenergic receptor; test: Agonistic activity to recombinant human beta-3 adrenergic receptor expressed in CHO cells by measuring cAMP accumulation; assay type: functional, cell-based
Target sequence in this assay (P13945 whole entry, looked up): as the sequence (P13945 whole entry) above

[3] = molecular target: T1, Beta-3 adrenergic receptor; test: Agonistic activity against human Beta-3 adrenergic receptor by measuring cAMP accumulation in CHO cells expressing beta3-AR with respect to isoproterenol at a concentration of 10e-7 M; assay type: functional, cell-based
Target sequence in this assay (P13945 whole entry, looked up): as the sequence (P13945 whole entry) above

[4] = molecular target: T1, Beta-3 adrenergic receptor; test: Agonism of recombinant human beta-3 adrenergic receptor assayed by measuring cAMP accumulation in CHO cells expressing beta3-AR; assay type: functional, cell-based
Target sequence in this assay (P13945 whole entry): as above

[5] = molecular target: Beta-3 adrenergic receptor (Rattus norvegicus) (UniProt P26255); test: Agonistic activity against rat Beta-3 adrenergic receptor as cAMP accumulation in CHO cells expressing beta3-AR
[6] = molecular target: T2, Beta-2 adrenergic receptor (Homo sapiens, UniProt P07550); test: (§2) Agonistic activity against human Beta-2 adrenergic receptor by measuring cAMP accumulation in CHO cells expressing beta3-AR; assay type: functional, cell-based
Target sequence in this assay (P07550 whole entry, looked up): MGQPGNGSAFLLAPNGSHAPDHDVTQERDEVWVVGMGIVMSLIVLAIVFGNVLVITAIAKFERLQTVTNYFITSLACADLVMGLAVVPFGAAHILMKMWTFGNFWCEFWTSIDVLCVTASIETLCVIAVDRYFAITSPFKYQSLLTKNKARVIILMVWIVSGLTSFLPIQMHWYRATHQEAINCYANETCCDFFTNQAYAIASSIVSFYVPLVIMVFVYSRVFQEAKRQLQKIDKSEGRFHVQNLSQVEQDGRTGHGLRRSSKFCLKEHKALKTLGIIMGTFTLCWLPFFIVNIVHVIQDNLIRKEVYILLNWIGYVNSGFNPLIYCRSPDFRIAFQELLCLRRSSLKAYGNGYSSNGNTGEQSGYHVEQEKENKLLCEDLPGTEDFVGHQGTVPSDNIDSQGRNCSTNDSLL

[7] = molecular target: Beta-3 adrenergic receptor (Rattus norvegicus) (UniProt P26255); test: Agonistic activity against rat Beta-3 adrenergic receptor as cAMP accumulation in CHO cells expressing beta3-AR; remark: listed apart in the source
[8] = molecular target: Beta-1 adrenergic receptor (Homo sapiens, UniProt P08588); test: Agonistic activity against human Beta-1 adrenergic receptor by measuring cAMP accumulation in CHO cells expressing beta3-AR; assay type: functional, cell-based
Chain of Beta-1 adrenergic receptor (P08588 whole entry): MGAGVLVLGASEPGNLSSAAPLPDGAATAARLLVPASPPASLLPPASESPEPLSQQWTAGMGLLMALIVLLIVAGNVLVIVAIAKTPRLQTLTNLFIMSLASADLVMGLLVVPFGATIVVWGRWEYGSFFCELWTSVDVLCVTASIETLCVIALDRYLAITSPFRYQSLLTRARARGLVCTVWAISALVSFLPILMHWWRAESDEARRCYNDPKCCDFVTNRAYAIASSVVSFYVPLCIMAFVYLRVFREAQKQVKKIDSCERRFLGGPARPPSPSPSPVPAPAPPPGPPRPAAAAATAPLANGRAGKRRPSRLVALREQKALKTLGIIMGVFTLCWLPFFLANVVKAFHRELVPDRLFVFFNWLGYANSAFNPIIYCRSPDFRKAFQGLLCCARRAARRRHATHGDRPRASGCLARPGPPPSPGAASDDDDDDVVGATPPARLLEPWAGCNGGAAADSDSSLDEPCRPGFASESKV

[9] = molecular target: T1, Beta-3 adrenergic receptor; test: Agonistic activity against human Beta-3 adrenergic receptor by measuring cAMP accumulation in CHO cells expressing Beta-3 adrenergic receptor with respect to isoproterenol at a concentration of 10e-7 M; assay type: functional, cell-based
Target sequence in this assay (P13945 whole entry, looked up): as the sequence (P13945 whole entry) above

[10] = molecular target: T2, Beta-2 adrenergic receptor; test: as §2; assay type: functional, cell-based; remark: listed apart in the source
Target sequence in this assay (P07550 whole entry): as the sequence (P07550 whole entry, looked up) above

[11] = molecular target: T1, Beta-3 adrenergic receptor; test: Agonistic activity against human Beta-3 adrenergic receptor by measuring cAMP accumulation in CHO cells; assay type: functional, cell-based
Target sequence in this assay (P13945 whole entry, looked up): as the sequence (P13945 whole entry) above

[12] = molecular target: T1, Beta-3 adrenergic receptor; test: Agonistic activity against human beta-3-adrenergic receptor by measuring cAMP accumulation in CHO cells expressing Beta-3 adrenergic receptor; assay type: functional, cell-based
Target sequence in this assay (P13945 whole entry, looked up): as the sequence (P13945 whole entry) above

[13] = molecular target: T1, Beta-3 adrenergic receptor; test: as §1; assay type: functional, cell-based; remark: listed apart in the source
Target sequence in this assay (P13945 whole entry, looked up): as the sequence (P13945 whole entry) above

Compound `CC(Cc1c[nH]c2ccccc12)NCC(O)c1cccc(Cl)c1` (centres undefined) [listing 1 of 2 here] has an EC50 [1] of 12 nM.

`COc1ccc2c(CC(C)NCC(O)c3cccc(Cl)c3)c[nH]c2c1` (centres undefined) was tested, and the Intrinsic activity [2] was 102%.

With `Cc1[nH]c2ccccc2c1CCNCC(O)c1cccc(Cl)c1` (centres undefined) the cAMP accumulation [3] was 5%.

Work on `CC(Cc1c[nH]c2c(OC(C)C)cccc12)NC[C@H](O)c1cccc(Cl)c1` (some centres undefined) yielded an EC50 [4] of 2.8 nM and an Intrinsic activity [2] of 87%.

In the case of `CC(Cc1c[nH]c2ccccc12)NCC(O)c1cccc(Cl)c1` (mixture of isomers) [listing 1 of 2 here], the Intrinsic activity [5] is reported as 107%, the Intrinsic activity [6] is reported as 46% and the Intrinsic activity [2] is reported as 114%.

With `C[C@@H](Cc1c[nH]c2ccccc12)NC[C@@H](O)c1cccc(Cl)c1` the Intrinsic activity [5] was 108%, the EC50 [4] was 3300 nM and the EC50 [7] was 33 nM. For the same compound, the Intrinsic activity [2] was 62% and the EC50 [8] was 140 nM.

For `Cc1ccc2[nH]cc(CCNCC(O)c3cccc(Cl)c3)c2c1` (centres undefined), the cAMP accumulation [3] was 7%.

In the case of `Cc1cccc2[nH]cc(CC(C)NCC(O)c3cccc(Cl)c3)c12` (centres undefined), the EC50 [4] is reported as 96 nM and the Intrinsic activity [2] is reported as 165%.

`CCC(Cc1c[nH]c2ccccc12)NCC(O)c1cccc(Cl)c1` (centres undefined) showed a cAMP accumulation [9] of 20%.

For `COc1cccc2c(CC(C)NC[C@H](O)c3cccc(Cl)c3)c[nH]c12` (some centres undefined), the Intrinsic activity [2] was 114%.

Work on `C[C@@H](Cc1c[nH]c2ccccc12)NC[C@H](O)c1cccc(Cl)c1` yielded an Intrinsic activity [5] of 96%, an EC50 [4] of 240 nM and an EC50 [7] of 13 nM. For the same compound, the Intrinsic activity [2] was 97% and the EC50 [8] was 9.4 nM.

In the case of `C[C@H](Cc1c[nH]c2c(OCC(=O)O)cccc12)NC[C@H](O)c1cccc(Cl)c1` [RAFABEGRON], the Intrinsic activity [5] is reported as 110%, the EC50 [4] is reported as 0.062 nM and the Intrinsic activity [6] is reported as 26%. For the same compound, the EC50 [7] was 0.016 nM, the Intrinsic activity [2] was 116% and the EC50 [10] was 13 nM. The EC50 [8] was 6.4 nM.

`C[C@@H](Cc1c[nH]c2c(OCC(=O)O)cccc12)NC[C@H](O)c1cccc(Cl)c1` showed an Intrinsic activity [5] of 106%, an EC50 [4] of 10 nM and an EC50 [7] of 1.2 nM. For the same compound, the Intrinsic activity [2] was 84% and the EC50 [8] was 14 nM.

For `COc1cccc2c(C[C@@H](C)NC[C@H](O)c3cccc(Cl)c3)c[nH]c12`, the Intrinsic activity [5] was 147%, the EC50 [4] was 0.36 nM and the Intrinsic activity [6] was 46%. The EC50 [7] was 0.15 nM, the Intrinsic activity [2] was 89% and the EC50 [10] was 5.2 nM.

Work on `CC(Cc1c[nH]c2cc(Cl)ccc12)NCC(O)c1cccc(Cl)c1` (centres undefined) yielded an EC50 [4] of 28 nM and an Intrinsic activity [2] of 131%.

For `COc1cccc2c(C[C@H](C)NC[C@H](O)c3cccc(Cl)c3)c[nH]c12`, the Intrinsic activity [5] was 121%, the EC50 [4] was 120 nM and the EC50 [7] was 6.5 nM. For the same compound, the Intrinsic activity [2] was 51%.

`CC(Cc1c[nH]c2c(OCc3ccccc3)cccc12)NC[C@H](O)c1cccc(Cl)c1` (some centres undefined) was tested, and the EC50 [4] was 11 nM and the Intrinsic activity [2] was 114%.

Compound `CC(Cc1c[nH]c2cc(Br)ccc12)NCC(O)c1cccc(Cl)c1` (centres undefined) has an EC50 [4] of 38 nM and an Intrinsic activity [2] of 98%.

`OC(CNCCc1c[nH]c2ccccc12)c1cccc(Cl)c1` (centres undefined) gave an EC50 [1] of 69 nM and an Intrinsic activity [11] of 99%.

Compound `CC(C)(Cc1c[nH]c2ccccc12)NCC(O)c1cccc(Cl)c1` (centres undefined) has an Intrinsic activity [12] of 118% and an EC50 [1] of 70 nM.

`Cc1cccc2[nH]cc(CCNCC(O)c3cccc(Cl)c3)c12` (centres undefined) showed a cAMP accumulation [3] of 20%.

In the case of `C[C@H](Cc1ccc(OCC(=O)O)cc1)NC[C@H](O)c1cccc(Cl)c1`, the Intrinsic activity [6] is reported as 31%.

`COc1cccc2c(CC(C)NCC(O)c3cccc(Cl)c3)c[nH]c12` (centres undefined) showed an Intrinsic activity [2] of 113%.

`CCCOc1cccc2c(CC(C)NC[C@H](O)c3cccc(Cl)c3)c[nH]c12` (some centres undefined) was tested, and the EC50 [4] was 14 nM and the Intrinsic activity [2] was 103%.

`CC(Cc1c[nH]c2ccccc12)NCC(O)c1cccc(Cl)c1` (mixture of isomers) [listing 2 of 2 here] showed an EC50 [4] of 12 nM, an EC50 [7] of 0.97 nM and an EC50 [10] of 23 nM.

`C[C@H](Cc1c[nH]c2ccccc12)NC[C@H](O)c1cccc(Cl)c1` was tested, and the Intrinsic activity [5] was 98%, the EC50 [4] was 5.4 nM and the Intrinsic activity [6] was 50%. For the same compound, the EC50 [7] was 0.36 nM, the Intrinsic activity [2] was 110% and the EC50 [10] was 25 nM. The EC50 [8] was 1.9 nM.

In the case of `Cn1cc(CCNCC(O)c2cccc(Cl)c2)c2ccccc21` (centres undefined), the cAMP accumulation [3] is reported as 6%.

Work on `OC(CNC1CCc2[nH]c3ccccc3c2C1)c1cccc(Cl)c1` (centres undefined) yielded a cAMP accumulation [3] of 0%.

In the case of `CCOc1cccc2c(CC(C)NC[C@H](O)c3cccc(Cl)c3)c[nH]c12` (some centres undefined), the Intrinsic activity [2] is reported as 96%.

With `CC(Cc1c[nH]c2ccccc12)NCC(O)c1cccc(Cl)c1` (centres undefined) [listing 2 of 2 here] the Intrinsic activity [13] was 114%.

In the case of `CC(Cc1c[nH]c2c(OCC(=O)O)cccc12)NC[C@H](O)c1cccc(Cl)c1` (some centres undefined), the EC50 [4] is reported as 0.11 nM and the Intrinsic activity [2] is reported as 124%.

`COC(=O)COc1cccc2c(CC(C)NC[C@H](O)c3cccc(Cl)c3)c[nH]c12` (some centres undefined) was tested, and the EC50 [4] was 0.92 nM and the Intrinsic activity [2] was 102%.

`Cc1ccc2c(CC(C)NCC(O)c3cccc(Cl)c3)c[nH]c2c1` (centres undefined) was tested, and the Intrinsic activity [2] was 95%.

`Cc1cccc2c(CCNCC(O)c3cccc(Cl)c3)c[nH]c12` (centres undefined) showed a cAMP accumulation [3] of 0%.

`C[C@H](Cc1c[nH]c2ccccc12)NC[C@@H](O)c1cccc(Cl)c1` was tested, and the Intrinsic activity [5] was 108%, the EC50 [4] was 220 nM and the Intrinsic activity [6] was 23%. For the same compound, the EC50 [7] was 11 nM, the Intrinsic activity [2] was 119% and the EC50 [10] was 330 nM. The EC50 [8] was 47 nM.

Work on `CC(Cc1c[nH]c2c(O)cccc12)NC[C@H](O)c1cccc(Cl)c1` (some centres undefined) yielded an EC50 [4] of 1.7 nM and an Intrinsic activity [2] of 128%.
